{"source": "paper PMC5218480", "about": "(PLoS ONE, 2017)", "test_system": "MV-4-11 cells", "test": "Gene expression microarray analysis (Affymetrix PrimeView) and GSEA", "assay_type": "cell-based, human", "parameters": "RFU PODN (11730768_x_at) / Fold change /veh PODN (11730768_x_at) / RFU LINC00158 (11744669_a_at) / Fold change /veh LINC00158 (11744669_a_at) / RFU DUSP10 (11751237_a_at) / Fold change /veh DUSP10 (11751237_a_at) / RFU ID3 (11757404_x_at) / Fold change /veh ID3 (11757404_x_at) / RFU PLEKHG5 (11737974_s_at) / Fold change /veh PLEKHG5 (11737974_s_at) / RFU LRRC4B (11730491_at) / Fold change /veh LRRC4B (11730491_at) / RFU GIMAP4 (11747438_a_at) / Fold change /veh GIMAP4 (11747438_a_at) / RFU KRT8 (11758183_x_at) / Fold change /veh KRT8 (11758183_x_at) / RFU CNN1 (11734310_a_at) / Fold change /veh CNN1 (11734310_a_at) / RFU VPS37D (11726825_at) / Fold change /veh VPS37D (11726825_at) / RFU C10orf10 (11716522_x_at) / Fold change /veh C10orf10 (11716522_x_at) / RFU KIR2DL2 /// KIR2DL4 /// KIR2DL5A /// KIR2DL5B /// KIR2DS1 /// KIR2DS2 /// KIR2DS3 /// KIR2DS4 /// KIR3DL3 /// KIR3DL3 /// KIR3DS1 (11738374_at) / Fold change /veh KIR2DL2 /// KIR2DL4 /// KIR2DL5A /// KIR2DL5B /// KIR2DS1 /// KIR2DS2 /// KIR2DS3 /// KIR2DS4 /// KIR3DL3 /// KIR3DL3 /// KIR3DS1 (11738374_at) / RFU C1QL1 (11718748_at) / Fold change /veh C1QL1 (11718748_at) / RFU TMPRSS4 (11747572_a_at) / Fold change /veh TMPRSS4 (11747572_a_at) / RFU HAMP (11756126_x_at) / Fold change /veh HAMP (11756126_x_at) / RFU RNFT2 (11725882_a_at) / Fold change /veh RNFT2 (11725882_a_at) / RFU NR4A2 (11747474_a_at) / Fold change /veh NR4A2 (11747474_a_at) / RFU ABCC12 (11746883_a_at) / Fold change /veh ABCC12 (11746883_a_at) / RFU TMEM136 (11760407_x_at) / Fold change /veh TMEM136 (11760407_x_at) / RFU CLDN22 /// WWC2 (11732394_at) / Fold change /veh CLDN22 /// WWC2 (11732394_at) / RFU HLA-DPB1 (11760878_x_at) / Fold change /veh HLA-DPB1 (11760878_x_at) / RFU SPINT1 (11716480_a_at) / Fold change /veh SPINT1 (11716480_a_at) / RFU GAP43 (11754022_s_at) / Fold change /veh GAP43 (11754022_s_at) / RFU A4GNT (11735810_at) / Fold change /veh A4GNT (11735810_at) / RFU PRB3 (11715151_x_at) / Fold change /veh PRB3 (11715151_x_at) / RFU TUBB4B (11761932_at) / Fold change /veh TUBB4B (11761932_at) / RFU CAPN14 (11732068_a_at) / Fold change /veh CAPN14 (11732068_a_at) / RFU TMCC2 (11721928_a_at) / Fold change /veh TMCC2 (11721928_a_at) / RFU IRGQ (11745062_a_at) / Fold change /veh IRGQ (11745062_a_at) / RFU FAM174B (11720279_a_at) / Fold change /veh FAM174B (11720279_a_at) / RFU TMPRSS4 (11748680_a_at) / Fold change /veh TMPRSS4 (11748680_a_at) / RFU FAM212B (11763350_a_at) / Fold change /veh FAM212B (11763350_a_at) / RFU PLEKHG5 (11743358_a_at) / Fold change /veh PLEKHG5 (11743358_a_at) / RFU ZSCAN30 (11745921_a_at) / Fold change /veh ZSCAN30 (11745921_a_at) / RFU CMKLR1 (11741424_a_at) / Fold change /veh CMKLR1 (11741424_a_at) / RFU LOC101060620 /// MAPK8IP1 (11723275_at) / Fold change /veh LOC101060620 /// MAPK8IP1 (11723275_at) / RFU SPTSSB (11747773_x_at) / Fold change /veh SPTSSB (11747773_x_at) / RFU PRSS12 (11739890_at) / Fold change /veh PRSS12 (11739890_at) / RFU BIN1 (11741810_x_at) / Fold change /veh BIN1 (11741810_x_at) / RFU WNT11 (11732464_a_at) / Fold change /veh WNT11 (11732464_a_at) / RFU C10orf10 (11716521_a_at) / Fold change /veh C10orf10 (11716521_a_at) / RFU C5orf56 (11738089_at) / Fold change /veh C5orf56 (11738089_at) / RFU CYB561 (11721691_x_at) / Fold change /veh CYB561 (11721691_x_at) / RFU ANKRD19P (11752326_a_at) / Fold change /veh ANKRD19P (11752326_a_at) / RFU OR2T12 /// OR2T33 /// OR2T8 (11738714_s_at) / Fold change /veh OR2T12 /// OR2T33 /// OR2T8 (11738714_s_at) / RFU VCAN (11748164_a_at) / Fold change /veh VCAN (11748164_a_at) / RFU JSRP1 (11732532_at) / Fold change /veh JSRP1 (11732532_at) / RFU KRTAP10-11 (11738290_x_at) / Fold change /veh KRTAP10-11 (11738290_x_at) / RFU MYO3A (11730013_a_at) / Fold change /veh MYO3A (11730013_a_at) / RFU EBF3 (11725865_a_at) / Fold change /veh EBF3 (11725865_a_at) / RFU CAMK2N1 (11719241_x_at) / Fold change /veh CAMK2N1 (11719241_x_at) / RFU C5orf56 (11738088_a_at) / Fold change /veh C5orf56 (11738088_a_at) / RFU OLFML3 (11715873_a_at) / Fold change /veh OLFML3 (11715873_a_at) / RFU LOC100653217 /// NTM (11731650_a_at) / Fold change /veh LOC100653217 /// NTM (11731650_a_at) / RFU MAPK11 (11762145_a_at) / Fold change /veh MAPK11 (11762145_a_at) / RFU FIZ1 (11724087_x_at) / Fold change /veh FIZ1 (11724087_x_at) / RFU OASL (11726364_x_at) / Fold change /veh OASL (11726364_x_at) / RFU SOX15 (11748057_x_at) / Fold change /veh SOX15 (11748057_x_at) / RFU CD79A (11719716_a_at) / Fold change /veh CD79A (11719716_a_at) / RFU HIST1H1D (11736915_at) / Fold change /veh HIST1H1D (11736915_at) / RFU CASKIN2 (11723855_a_at) / Fold change /veh CASKIN2 (11723855_a_at) / RFU LOC730098 (11760151_x_at) / Fold change /veh LOC730098 (11760151_x_at) / RFU OR4N2 (11742367_at) / Fold change /veh OR4N2 (11742367_at) / RFU PRRT2 (11749266_a_at) / Fold change /veh PRRT2 (11749266_a_at) / RFU SNX32 (11753110_a_at) / Fold change /veh SNX32 (11753110_a_at) / RFU CDHR5 (11726645_a_at) / Fold change /veh CDHR5 (11726645_a_at) / RFU RCAN1 (11760418_a_at) / Fold change /veh RCAN1 (11760418_a_at) / RFU FAM167A (11723789_a_at) / Fold change /veh FAM167A (11723789_a_at) / RFU FAM26E (11764081_at) / Fold change /veh FAM26E (11764081_at) / RFU ISYNA1 (11749810_s_at) / Fold change /veh ISYNA1 (11749810_s_at) / RFU ACY1 (11761880_at) / Fold change /veh ACY1 (11761880_at) / RFU 11764098_at / Fold change /veh 11764098_at / RFU SAMD14 (11745864_x_at) / Fold change /veh SAMD14 (11745864_x_at) / RFU NPB (11741838_a_at) / Fold change /veh NPB (11741838_a_at) / RFU TMPRSS6 (11731388_a_at) / Fold change /veh TMPRSS6 (11731388_a_at) / RFU KRTAP10-2 (11738614_at) / Fold change /veh KRTAP10-2 (11738614_at) / RFU ARHGAP8 /// PRR5-ARHGAP8 (11727945_x_at) / Fold change /veh ARHGAP8 /// PRR5-ARHGAP8 (11727945_x_at) / RFU KRTAP5-7 /// NADSYN1 (11734609_at) / Fold change /veh KRTAP5-7 /// NADSYN1 (11734609_at) / RFU RASL12 (11751679_a_at) / Fold change /veh RASL12 (11751679_a_at) / RFU CDKN2B (11736163_a_at) / Fold change /veh CDKN2B (11736163_a_at) / RFU PRF1 (11729649_at) / Fold change /veh PRF1 (11729649_at) / RFU, ZNF638 /// ZNF638-IT1 / Fold change vs veh, ZNF638 /// ZNF638-IT1 / RFU, PANK3 / Fold change vs veh, PANK3 / RFU, SH3YL1 / Fold change vs veh, SH3YL1 / RFU, ZEB2 / Fold change vs veh, ZEB2 / RFU, NRIP1 / Fold change vs veh, NRIP1 / RFU, PTTG1IP / Fold change vs veh, PTTG1IP / RFU, CAPN2 / Fold change vs veh, CAPN2 / RFU, MED14 / Fold change vs veh, MED14 / RFU, SNORA58 / Fold change vs veh, SNORA58 / RFU, C1orf63 / Fold change vs veh, C1orf63 / RFU, LRRFIP1 / Fold change vs veh, LRRFIP1 / RFU, NDUFAF7 / Fold change vs veh, NDUFAF7 / RFU, SLC12A2 / Fold change vs veh, SLC12A2 / RFU, IBTK / Fold change vs veh, IBTK / RFU, ESF1 / Fold change vs veh, ESF1 / Fold change vs veh, TMEM50B / RFU, TAOK1 / Fold change vs veh, TAOK1 / RFU, ACBD3 / Fold change vs veh, ACBD3 / RFU, TMA16 / Fold change vs veh, TMA16 / RFU, RWDD3 / Fold change vs veh, RWDD3 / RFU, BCAT1 / Fold change vs veh, BCAT1 / RFU, EDEM3 / Fold change vs veh, EDEM3 / RFU, TMEM33 / Fold change vs veh, TMEM33 / RFU, WDR75 / Fold change vs veh, WDR75 / RFU, AHCTF1 / Fold change vs veh, AHCTF1 / RFU, TFRC / Fold change vs veh, TFRC / RFU, ZDHHC17 / Fold change vs veh, ZDHHC17 / RFU, NOM1 / Fold change vs veh, NOM1 / RFU, ARL8B / Fold change vs veh, ARL8B / RFU, ZBTB11 / Fold change vs veh, ZBTB11 / RFU, TAMM41 / Fold change vs veh, TAMM41 / RFU, KIAA1704 /// LOC100996395 / Fold change vs veh, KIAA1704 /// LOC100996395 / RFU, ING1 / Fold change vs veh, ING1 / RFU, TRMT61B / Fold change vs veh, TRMT61B / RFU, FUBP3 / Fold change vs veh, FUBP3 / RFU, TP53 / Fold change vs veh, TP53 / RFU, TNKS2 / Fold change vs veh, TNKS2 / RFU, ZFP14 / Fold change vs veh, ZFP14 / RFU, ACTR2 / Fold change vs veh, ACTR2 / RFU, PPP3R1 / Fold change vs veh, PPP3R1 / RFU, PIK3R1 / Fold change vs veh, PIK3R1 / RFU, HNRNPA1 / Fold change vs veh, HNRNPA1 / RFU, RNF170 / Fold change vs veh, RNF170 / RFU, ZNF28 / Fold change vs veh, ZNF28 / RFU, RNGTT / Fold change vs veh, RNGTT / RFU, OGT / Fold change vs veh, OGT / RFU, BRD1 / Fold change vs veh, BRD1 / RFU, MARS / Fold change vs veh, MARS / RFU, ZNF655 / Fold change vs veh, ZNF655 / RFU, FAHD1 / Fold change vs veh, FAHD1 / RFU, BDP1 / Fold change vs veh, BDP1 / RFU, LRRCC1 / Fold change vs veh, LRRCC1 / RFU, ARID1A / Fold change vs veh, ARID1A / RFU, ZNF146 / Fold change vs veh, ZNF146 / RFU, ZNF330 / Fold change vs veh, ZNF330 / RFU, GPN3 / Fold change vs veh, GPN3 / RFU, C9orf123 / Fold change vs veh, C9orf123 / RFU, N4BP2L2 / Fold change vs veh, N4BP2L2 / RFU, ARFIP1 / Fold change vs veh, ARFIP1 / RFU, FAM179B / Fold change vs veh, FAM179B / RFU, BCL10 / Fold change vs veh, BCL10 / RFU, UHRF1BP1L / Fold change vs veh, UHRF1BP1L / RFU, BET1 / Fold change vs veh, BET1 / RFU, CNOT2 / Fold change vs veh, CNOT2 / RFU, ZNF268 / Fold change vs veh, ZNF268 / Fold change vs veh, ZNF507 / RFU, DGCR2 / Fold change vs veh, DGCR2 / RFU, WDSUB1 / Fold change vs veh, WDSUB1 / Fold change vs veh, HSP90B1 /// MIR3652 / RFU, ADSS / Fold change vs veh, ADSS / RFU, GK / Fold change vs veh, GK / RFU, ZNF148 / Fold change vs veh, ZNF148 / RFU, TAF9 / Fold change vs veh, TAF9 / RFU, SLC1A5 / Fold change vs veh, SLC1A5 / RFU, SLMO2 / Fold change vs veh, SLMO2 / RFU, ABCC4 / Fold change vs veh, ABCC4 / RFU, LOC101060439 /// RAP1B / Fold change vs veh, LOC101060439 /// RAP1B / RFU, RFX7 / Fold change vs veh, RFX7 / RFU, GTPBP10 / Fold change vs veh, GTPBP10 / RFU, CNEP1R1 / Fold change vs veh, CNEP1R1 / RFU, BIVM-ERCC5 /// ERCC5 / Fold change vs veh, BIVM-ERCC5 /// ERCC5 / RFU, ILF3 / Fold change vs veh, ILF3 / RFU 11762660_at / Fold change /veh 11762660_at / RFU VCAN (11757783_s_at) / Fold change /veh VCAN (11757783_s_at) / RFU DDX43 (11728927_at) / Fold change /veh DDX43 (11728927_at) / RFU KRT8 (11758188_x_at) / Fold change /veh KRT8 (11758188_x_at) / RFU NKD1 (11759106_at) / Fold change /veh NKD1 (11759106_at) / RFU SRD5A1 (11742802_a_at) / Fold change /veh SRD5A1 (11742802_a_at) / RFU TPSAB1 /// TPSB2 (11721975_s_at) / Fold change /veh TPSAB1 /// TPSB2 (11721975_s_at) / RFU GSTM3 (11746129_a_at) / Fold change /veh GSTM3 (11746129_a_at) / RFU IL23R (11737362_x_at) / Fold change /veh IL23R (11737362_x_at) / RFU TMEM51 (11727254_a_at) / Fold change /veh TMEM51 (11727254_a_at) / RFU PIWIL2 (11732686_x_at) / Fold change /veh PIWIL2 (11732686_x_at) / RFU ORM1 (11744905_x_at) / Fold change /veh ORM1 (11744905_x_at) / RFU CCDC152 (11743942_at) / Fold change /veh CCDC152 (11743942_at) / RFU ECM1 (11717891_a_at) / Fold change /veh ECM1 (11717891_a_at) / RFU IL23R (11748794_a_at) / Fold change /veh IL23R (11748794_a_at) / RFU TNFAIP8L3 (11732012_x_at) / Fold change /veh TNFAIP8L3 (11732012_x_at) / RFU MBOAT4 (11741988_at) / Fold change /veh MBOAT4 (11741988_at) / RFU 11764193_at / Fold change /veh 11764193_at / RFU TMEM53 (11763286_at) / Fold change /veh TMEM53 (11763286_at) / RFU MAGEB2 (11727129_at) / Fold change /veh MAGEB2 (11727129_at) / RFU TMEM200A (11744735_a_at) / Fold change /veh TMEM200A (11744735_a_at) / RFU CCDC152 (11751479_a_at) / Fold change /veh CCDC152 (11751479_a_at) / RFU FAM211A (11726209_a_at) / Fold change /veh FAM211A (11726209_a_at) / RFU RGS16 (11746705_a_at) / Fold change /veh RGS16 (11746705_a_at) / RFU VCAN (11755009_s_at) / Fold change /veh VCAN (11755009_s_at) / RFU RHOB (11743442_s_at) / Fold change /veh RHOB (11743442_s_at) / RFU RGS16 (11720943_a_at) / Fold change /veh RGS16 (11720943_a_at) / RFU RGS16 (11720944_at) / Fold change /veh RGS16 (11720944_at) / RFU, VPS4B / Fold change vs veh, VPS4B / RFU, CREB1 / Fold change vs veh, CREB1 / RFU, DNAJC13 / Fold change vs veh, DNAJC13 / RFU, GNAQ / Fold change vs veh, GNAQ / RFU, CDK5R1 / Fold change vs veh, CDK5R1 / RFU, ZRANB3 / Fold change vs veh, ZRANB3 / RFU, CUL4A / Fold change vs veh, CUL4A / RFU, CCNY / Fold change vs veh, CCNY / RFU, UFL1 / Fold change vs veh, UFL1 / RFU, COG3 / Fold change vs veh, COG3 / RFU, DIAPH2 / Fold change vs veh, DIAPH2 / RFU, SKA2 / Fold change vs veh, SKA2 / RFU, AFF3 / Fold change vs veh, AFF3 / RFU, LMF1 / Fold change vs veh, LMF1 / RFU, IPO11 / Fold change vs veh, IPO11 / RFU, DFFB / Fold change vs veh, DFFB / RFU, FOXP1 / Fold change vs veh, FOXP1 / RFU, CARD8 / Fold change vs veh, CARD8 / RFU, STRN3 / Fold change vs veh, STRN3 / RFU, ADK / Fold change vs veh, ADK / RFU, RASSF2 / Fold change vs veh, RASSF2 / RFU, WIPF1 / Fold change vs veh, WIPF1 / RFU, LARP1B / Fold change vs veh, LARP1B / RFU, RASA1 / Fold change vs veh, RASA1 / RFU, RB1 / Fold change vs veh, RB1 / RFU, PPFIA1 / Fold change vs veh, PPFIA1 / RFU, MAT2A / Fold change vs veh, MAT2A / RFU, CCT5 / Fold change vs veh, CCT5 / RFU, WDR92 / Fold change vs veh, WDR92 / RFU, CUX1 / Fold change vs veh, CUX1 / RFU, TTC7A / Fold change vs veh, TTC7A / RFU, TMEM135 / Fold change vs veh, TMEM135 / RFU, DEPTOR / Fold change vs veh, DEPTOR / RFU, CPM / Fold change vs veh, CPM / RFU, DNAJB6 / Fold change vs veh, DNAJB6 / RFU, CACNA2D3 / Fold change vs veh, CACNA2D3 / RFU, DTX4 / Fold change vs veh, DTX4 / RFU, TFCP2 / Fold change vs veh, TFCP2 / RFU, GMCL1 /// GMCL1P1 / Fold change vs veh, GMCL1 /// GMCL1P1 / RFU, AEBP2 / Fold change vs veh, AEBP2 / RFU, SNHG1 /// SNORD22 /// SNORD25 /// SNORD26 /// SNORD27 /// SNORD28 /// SNORD29 /// SNORD31 / Fold change vs veh, SNHG1 /// SNORD22 /// SNORD25 /// SNORD26 /// SNORD27 /// SNORD28 /// SNORD29 /// SNORD31 / Fold change (Aza/veh), C12orf56 (ProbeSet 11735607_a_at) / Fold change (ACY-1035/veh), C12orf56 (ProbeSet 11735607_a_at) / Fold change (Aza/veh), FGFR1OP (ProbeSet 11751329_s_at) / Fold change (ACY-1035/veh), FGFR1OP (ProbeSet 11751329_s_at) / Fold change (Aza/veh), VPS36 (ProbeSet 11739960_a_at) / Fold change (ACY-1035/veh), VPS36 (ProbeSet 11739960_a_at) / RFU SYPL1 (11715823_x_at) / Fold change /veh SYPL1 (11715823_x_at) / RFU IGFBP7 (11715501_s_at) / Fold change /veh IGFBP7 (11715501_s_at) / RFU REEP3 (11722064_at) / Fold change /veh REEP3 (11722064_at) / RFU IGLL1 (11728026_x_at) / Fold change /veh IGLL1 (11728026_x_at): dose or concentration left out as unconfirmed", "conditions": "ProbeSet 11753234_a_at; LIST B"}
{"smiles": "Nc1ncn([C@@H]2O[C@H](CO)[C@@H](O)[C@H]2O)c(=O)n1", "note": "[azacitidine]", "values": [{"measurement": "RFU, TAMM41", "result": 52.96, "unit": "RFU"}]}
